Assay results as given in patent US9693556B2, “Herbicidal pyridazinone derivatives” (SYNGENTA LIMITED, priority 2011, dated 2017).

Assays:
Type in all cases: in vivo
[1] = tested on: Alopecurus myosuroides (ALOMY); test: Post-emergence herbicidal glasshouse test on Alopecurus myosuroides; details: post-emergence, 1000 g/h, evaluated after 13 days
Procedure, shortened: (§1)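 Read-out: percentage herbicidal damage 13 days after spraying, given on a five-point scale (5=80-100%, 4=60-79%, 3=40-59%, 2=20-39%, 1=0-19%). Pots of standard soil; application at 1000 g/h, one day post-sowing for pre-emergence, eight days for post-emergence.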

[2] = tested on: Ipomoea hederacea (IPOHE); test: Post-emergence herbicidal glasshouse test on Ipomoea hederacea; details: post-emergence, 1000 g/h, evaluated after 13 days
Procedure, shortened: as §1

[3] = tested on: Amaranthus retoflexus (AMARE); test: Pre-emergence herbicidal glasshouse test on Amaranthus retoflexus; details: pre-emergence, 1000 g/h, evaluated after 13 days
Procedure, shortened: as §1

[4] = tested on: Ipomoea hederacea (IPOHE); test: Pre-emergence herbicidal glasshouse test on Ipomoea hederacea; details: pre-emergence, 1000 g/h, evaluated after 13 days
Procedure, shortened: as §1

Solanum nigrum (SOLNI) [5] = test: Post-emergence herbicidal glasshouse test on Solanum nigrum; details: post-emergence, 1000 g/h, evaluated after 13 days
Procedure, shortened: as §1

[6] = tested on: Echinochloa crus-galli (ECHCG); test: Post-emergence herbicidal glasshouse test on Echinochloa crus-galli; details: post-emergence, 1000 g/h, evaluated after 13 days
Procedure, shortened: as §1

Setaria faberi (SETFA) [7] = test: Post-emergence herbicidal glasshouse test on Setaria faberi; details: post-emergence, 1000 g/h, evaluated after 13 days
Procedure, shortened: as §1

[8] = tested on: Echinochloa crus-galli (ECHCG); test: Pre-emergence herbicidal glasshouse test on Echinochloa crus-galli; details: pre-emergence, 1000 g/h, evaluated after 13 days
Procedure, shortened: as §1

Setaria faberi (SETFA) [9] = test: Pre-emergence herbicidal glasshouse test on Setaria faberi; details: pre-emergence, 1000 g/h, evaluated after 13 days
Procedure, shortened: as §1

[10] = tested on: Alopecurus myosuroides (ALOMY); test: Pre-emergence herbicidal glasshouse test on Alopecurus myosuroides; details: pre-emergence, 1000 g/h, evaluated after 13 days
Procedure, shortened: as §1

[11] = tested on: Amaranthus retoflexus (AMARE); test: Post-emergence herbicidal glasshouse test on Amaranthus retoflexus; details: post-emergence, 1000 g/h, evaluated after 13 days
Procedure, shortened: as §1

Solanum nigrum (SOLNI) [12] = test: Pre-emergence herbicidal glasshouse test on Solanum nigrum; details: pre-emergence, 1000 g/h, evaluated after 13 days
Procedure, shortened: as §1

SMILES	POST Application ALOMY herbicidal damage (five point scale) [1]	POST Application IPOHE herbicidal damage (five point scale) [2]	PRE Application AMARE herbicidal damage (five point scale) [3]	PRE Application IPOHE herbicidal damage (five point scale) [4]	POST Application SOLNI herbicidal damage (five point scale) (Solanum nigrum (SOLNI) [5])	POST Application ECHCG herbicidal damage (five point scale) [6]	POST Application SETFA herbicidal damage (five point scale) (Setaria faberi (SETFA) [7])	PRE Application ECHCG herbicidal damage (five point scale) [8]	PRE Application SETFA herbicidal damage (five point scale) (Setaria faberi (SETFA) [9])	PRE Application ALOMY herbicidal damage (five point scale) [10]	POST Application AMARE herbicidal damage (five point scale) [11]	PRE Application SOLNI herbicidal damage (five point scale) (Solanum nigrum (SOLNI) [12])	further results
Cc1cc(-c2cnn(C)c(=O)c2O)c(C)c2c1S(=O)(=O)CCC21OCCO1 [Compound 1.031]	2 (2=20-39% damage)	5 (5=80-100% damage)	5 (5=80-100% damage)	1 (1=0-19% damage)	5 (5=80-100% damage)	5 (5=80-100% damage)	5 (5=80-100% damage)	5 (5=80-100% damage)	4 (4=60-79% damage)	1 (1=0-19% damage)	5 (5=80-100% damage)	2 (2=20-39% damage)	
Cn1ncc(-n2ccc(-c3ccc(C(F)(F)F)cc3)cc2=O)c(O)c1=O [Compound 1.023]	2 (2=20-39% damage)	1 (1=0-19% damage)	5 (5=80-100% damage)	1 (1=0-19% damage)	2 (2=20-39% damage)	1 (1=0-19% damage)	4 (4=60-79% damage)	1 (1=0-19% damage)	4 (4=60-79% damage)	2 (2=20-39% damage)	3 (3=40-59% damage)	1 (1=0-19% damage)	
Cn1ncc(-c2c(F)cnc(F)c2F)c(O)c1=O [Compound 1.149]	2 (2=20-39% damage)	1 (1=0-19% damage)	1 (1=0-19% damage)	1 (1=0-19% damage)	4 (4=60-79% damage)	1 (1=0-19% damage)	1 (1=0-19% damage)	1 (1=0-19% damage)	1 (1=0-19% damage)	1 (1=0-19% damage)	4 (4=60-79% damage)	1 (1=0-19% damage)	
Cn1ncc(-c2cccn(-c3cccc(C#N)c3)c2=O)c(O)c1=O [Compound 1.138]	1 (1=0-19% damage)	1 (1=0-19% damage)	1 (1=0-19% damage)	1 (1=0-19% damage)	5 (5=80-100% damage)	4 (4=60-79% damage)	5 (5=80-100% damage)	1 (1=0-19% damage)	1 (1=0-19% damage)	1 (1=0-19% damage)	5 (5=80-100% damage)	1 (1=0-19% damage)	
Cn1ncc(-c2ccc(C(F)(F)F)nc2Cl)c(O)c1=O [Compound 4.014]	1 (1=0-19% damage)	5 (5=80-100% damage)	5 (5=80-100% damage)	2 (2=20-39% damage)	5 (5=80-100% damage)	3 (3=40-59% damage)	2 (2=20-39% damage)	5 (5=80-100% damage)	1 (1=0-19% damage)	1 (1=0-19% damage)	5 (5=80-100% damage)	4 (4=60-79% damage)	
CCCCn1cc(C)cc(-c2cnn(C)c(=O)c2O)c1=O [Compound 6.003]	2 (2=20-39% damage)	2 (2=20-39% damage)	1 (1=0-19% damage)	1 (1=0-19% damage)	4 (4=60-79% damage)	4 (4=60-79% damage)	2 (2=20-39% damage)	1 (1=0-19% damage)	1 (1=0-19% damage)	1 (1=0-19% damage)	4 (4=60-79% damage)	1 (1=0-19% damage)	
Cc1ccc(Cl)c(-c2c(C(F)(F)F)ccn(-c3cnn(C)c(=O)c3O)c2=O)c1 [Compound 7.032]	3 (3=40-59% damage)	5 (5=80-100% damage)	5 (5=80-100% damage)	5 (5=80-100% damage)	5 (5=80-100% damage)	5 (5=80-100% damage)	5 (5=80-100% damage)	5 (5=80-100% damage)	5 (5=80-100% damage)	4 (4=60-79% damage)	5 (5=80-100% damage)	5 (5=80-100% damage)	
Cc1c(-c2cnn(C3CCCC3)c(=O)c2O)ccc(S(C)(=O)=O)c1C1=NOCC1 [Compound 1.007]	4 (4=60-79% damage)	4 (4=60-79% damage)	3 (3=40-59% damage)	2 (2=20-39% damage)	5 (5=80-100% damage)	5 (5=80-100% damage)	4 (4=60-79% damage)	4 (4=60-79% damage)	4 (4=60-79% damage)	1 (1=0-19% damage)	5 (5=80-100% damage)	2 (2=20-39% damage)	
COc1nccc(-c2cnn(C)c(=O)c2O)c1Cl [Compound 1.150]													herbicidal damage, POST Application ALOMY ([1]; five point scale): 1 (1=0-19% damage); herbicidal damage, POST Application IPOHE ([2]; five point scale): 1 (1=0-19% damage); herbicidal damage, PRE Application AMARE ([3]; five point scale): 2 (2=20-39% damage); herbicidal damage, PRE Application IPOHE ([4]; five point scale): 2 (2=20-39% damage); herbicidal damage, POST Application SOLNI (Solanum nigrum (SOLNI) [5]; five point scale): 4 (4=60-79% damage); herbicidal damage, POST Application ECHCG ([6]; five point scale): 1 (1=0-19% damage); herbicidal damage, POST Application SETFA (Setaria faberi (SETFA) [7]; five point scale): 1 (1=0-19% damage); herbicidal damage, PRE Application ECHCG ([8]; five point scale): 1 (1=0-19% damage); herbicidal damage, PRE Application SETFA (Setaria faberi (SETFA) [9]; five point scale): 1 (1=0-19% damage); herbicidal damage, PRE Application ALOMY ([10]; five point scale): 1 (1=0-19% damage); herbicidal damage, POST Application AMARE ([11]; five point scale): 1 (1=0-19% damage); herbicidal damage, PRE Application SOLNI (Solanum nigrum (SOLNI) [12]; five point scale): 1 (1=0-19% damage)
COc1ccc(Cl)c(-c2cnn(C)c(=O)c2O)c1 [Compound 1.090]	1 (1=0-19% damage)	1 (1=0-19% damage)	1 (1=0-19% damage)	1 (1=0-19% damage)	2 (2=20-39% damage)	1 (1=0-19% damage)	1 (1=0-19% damage)	1 (1=0-19% damage)	1 (1=0-19% damage)	1 (1=0-19% damage)	1 (1=0-19% damage)	1 (1=0-19% damage)	
